Calls of active or inactive are those of the source. The calls are words filed in the database; no cut-off is given here. Where only a bound is given, the exact number is not on record here.

In data set [1] the test system is Spodoptera litura. The data set is described as follows: Antifeedant activity against Spodoptera litura in compound treated cork borer from fresh sweet potato leaves assessed as leaf disk consumed at 26.5 degC. The data set is classed as functional.
In data set [2] the test system is Spodoptera litura. The data set is described as follows: Antifeedant activity against Spodoptera litura in compound treated cork borer from fresh sweet potato leaves assessed as leaf disk consumed at 0.33 mg/cm2 at 26.5 degC. The data set is classed as functional.
Data set [3] in a line: Lipophilicity, log k of the compound from retention time in ODS HPLC.

Turning to `COc1cc2c(c(OC)c1OC)C(=O)CO2` [4,5,6-TRIMETHOXYCOUMARANONE], in the data set with Spodoptera litura [1], the ED50 is 0.41 umol/cm2 and the pED50 amounted to 6.39.
Turning to `COc1cc(/C=C2\Oc3ccccc3C2=O)ccc1O`, in the data set with Spodoptera litura [2], the Activity is below 40%. In addition, in the data set with Spodoptera litura [1], the ED50 result was “inactive”.
As for `COc1cccc(/C=C2\Oc3ccccc3C2=O)c1` [3'-METHOXY-AURONE], the log k in data set [3] amounted to 0.737. In the data set with Spodoptera litura [1], the ED50 amounted to 1.01 umol/cm2 and the pED50 came out at 6.
The matching figures for `COc1cc(OC)c2c(c1)O/C(=C\c1ccccc1)C2=O`: 0.56, 0.85 umol/cm2 and 6.07.
With `COc1cc(OC)c2c(c1)O/C(=C\c1ccc(C)c(C)c1)C2=O`, the Activity in the data set with Spodoptera litura [2] was below 40%. Besides, the ED50 result in the data set on Spodoptera litura [1] was “inactive”.
For `COc1ccc(/C=C2\Oc3cc(C)cc(C)c3C2=O)cc1OC`, in the data set on Spodoptera litura [1], the ED50 is 1.02 umol/cm2 and the pED50 was 5.99.
Take `Cc1cc(C)c2c(c1)O/C(=C\c1ccc(C)c(C)c1)C2=O`: the Activity in the data set on Spodoptera litura [2] is below 40%. Moreover, the ED50 result with Spodoptera litura [1] was “inactive”.
In data set [3], `O=C1/C(=C/c2cccc(Br)c2)Oc2ccccc21` came in with a log k of 1.05. Besides, in the data set with Spodoptera litura [1], the ED50 was determined as 4.21 umol/cm2 and the pED50 worked out at 5.38.
For the molecule `COc1cc(/C=C2\Oc3ccccc3C2=O)cc(OC)c1`, in data set [3], the log k was determined as 0.741. In the data set on Spodoptera litura [1], the ED50 is 3.45 umol/cm2 and the pED50 is on record as 5.46.
The matching figures for `CCOc1cc(/C=C2\Oc3ccccc3C2=O)ccc1O`: 0.382, 1.96 umol/cm2 and 5.71.
`COc1ccc(/C=C2\Oc3cc(OC)c(OC)c(OC)c3C2=O)cc1OC`: the Activity in the data set with Spodoptera litura [2] is below 40%. In addition, the ED50 result with Spodoptera litura [1] is “inactive”.
`O=C1/C(=C/c2ccccc2)Oc2ccccc21` [(Z)-AURONE]: the Activity with Spodoptera litura [2] is below 40%. In addition, the ED50 result in the data set on Spodoptera litura [1] is “inactive”.
Take `COc1ccccc1/C=C1\Oc2ccccc2C1=O` [(Z)-2'-METHOXYAURONE]: in the data set on Spodoptera litura [2], the Activity is below 40%. Further, the ED50 entry in the data set on Spodoptera litura [1] was “inactive”.
Consider `O=C1COc2ccccc21` [3-COUMARANONE], for which the Activity with Spodoptera litura [2] is reported as below 40%. The ED50 result with Spodoptera litura [1] is “inactive”.
Take `Cc1cc(C)c2c(c1)OCC2=O` [4,6-DIMETHYLCOUMARANONE]: in the data set with Spodoptera litura [1], the ED50 is on record as 0.68 umol/cm2 and the pED50 is on record as 6.17.
`COc1cc(/C=C2\Oc3ccccc3C2=O)cc(OC)c1OC`: the Activity with Spodoptera litura [2] is given as below 40%. In the data set on Spodoptera litura [1], the ED50 result is “inactive”.
The matching figures for `O=C1/C(=C/c2ccc(O)c(O)c2)Oc2ccccc21`: below 40% and “inactive”.
`COc1cc(OC)c2c(c1)OCC2=O` [4,6-DIMETHOXYCOUMARANONE]: in the data set on Spodoptera litura [1], the ED50 was 3.87 umol/cm2 and the pED50 is 5.41.
With `COc1cc(OC)c2c(c1)O/C(=C\c1ccc(OC)c(OC)c1)C2=O` [4,6,3',4'-TETRAMETHOXYAURONE], in data set [3], the log k stood at 0.277. In the data set on Spodoptera litura [1], the ED50 was determined as 0.12 umol/cm2 and the pED50 is on record as 6.92.
In turn, `COc1ccc(/C=C2\Oc3ccccc3C2=O)cc1OC` [3',4'-DIMETHOXY-AURONE] displayed a log k in data set [3] of 0.741. Besides, in the data set with Spodoptera litura [1], the ED50 is on record as 0.86 umol/cm2 and the pED50 was 6.07.
For the molecule `C/C=C(/C)C(=O)O[C@H]1C[C@@H](OC(C)=O)[C@@]2(C)CO[C@H]3[C@H]4O[C@@H]5C[C@@H](c6ccoc6)C(C)=C5[C@@]4(C)[C@H](CC(=O)OC)[C@]1(C)[C@@H]32` [SALANNIN], in the data set on Spodoptera litura [1], the ED50 came to 0.066 umol/cm2 and the pED50 is 7.18.
Turning to `COc1ccc(/C=C2\Oc3ccccc3C2=O)cc1` [4'-METHOXY-AURONE], the log k in data set [3] amounted to 0.689. In the data set on Spodoptera litura [1], the ED50 stood at 2.03 umol/cm2 and the pED50 turned out to be 5.69.
Take `O=C1/C(=C/c2ccc3c(c2)OCO3)Oc2ccccc21`: in data set [3], the log k came out at 0.624. Also, in the data set with Spodoptera litura [1], the ED50 came to 1.61 umol/cm2 and the pED50 stood at 5.79.
Take `O=C1/C(=C/c2cccc(Cl)c2)Oc2ccccc21`: in the data set with Spodoptera litura [2], the Activity was below 40%. The ED50 entry in the data set with Spodoptera litura [1] was “inactive”.

(Values after ChEMBL document CHEMBL3044933, “Synthesis and insect antifeedant activity of aurones against Spodoptera litura larvae” (J Agric Food Chem, 2007).)
